Values quoted from earlier work in patent US20210000842A1, “TETRACYCLINE MANAGEMENT OF EGFR INHIBITOR ASSOCIATED DERMATOSES” (Foamix Pharmaceuticals Ltd., priority 2015, published 2021).

How the values were obtained:
[1] = tested on: mouse; details: cited from earlier work
[2] = tested on: patients treated with EGFR inhibitors; details: patients treated with the EGFR inhibitor (Erlotinib 150 mg QD); cited from earlier work
[3] = tested on: EGFR inhibitor-induced rash; details: cited from earlier work
[4] = cited from earlier work

Compound: C[C@H]1c2cccc(O)c2C(=O)C2=C(O)[C@]3(O)C(=O)C(C(N)=O)=C(O)[C@@H](N(C)C)[C@@H]3[C@@H](O)[C@@H]21 [Doxycycline, doxycycline]
- Oral acute toxicity LD50 [1]: 1007 mg/kg

Compound: C#Cc1cccc(Nc2ncnc3cc(OCCOC)c(OCCOC)cc23)c1 [Erlotinib]
- Patients who developed a grade 3 rash [2]: 9%
- Patients who developed a rash in all grades [2]: 75%

Compound: CC[C@@H]1/C=C(\C)C[C@H](C)C[C@H](OC)[C@H]2O[C@@](O)(C(=O)C(=O)N3CCCC[C@H]3C(=O)O[C@H](/C(C)=C/[C@@H]3CC[C@H](Cl)[C@H](OC)C3)[C@H](C)[C@@H](O)CC1=O)[C@H](C)C[C@@H]2OC [pimecrolimus]
- Lesion counts on treated side of the face ([3]; half face study, cetuximab, after 2 weeks): significantly less

Compound: Doxycycline hyclate
- Lipid solubility [4]: high degree
- Solubility in water [4]: soluble

Compound: CCOC(=O)c1ccc(C#Cc2ccc3c(c2)C(C)(C)CCS3)nc1 [tazarotene, Ethyl 6-[2-(4,4-dimethylthiochroman-6-yl)ethynyl] nicotinate]
- Clinical benefit on EGFR inhibitor-induced rash ([3]; cream twice a day): no observed clinical benefit
- Patients in whom the rash was assessed as more severe ([3]; cream twice a day): 10%
